This note sets out measurements from US20240166627A1, “Terpyridinedione compound or salt thereof, and preparation method and application thereof” (SHENZHEN SALUBRIS PHARMACEUTICALS CO., LTD., priority 2021, published 2024).

≈ marks a conversion by molar mass, not a printed value.

Data set [1] deals with production of TNFα in U937. Put plainly: Releasing TNFα from U937 induced by LPS. As to conditions: Homo sapiens, U-937; PMA-differentiated U937, LPS 100 ng/ml, 4 h; read-out: IC50 value that the compound inhibits the production of TNFα. It counts as cell-based. The source says:
Cytokine regulation in human monocytes has shown that the p38 pathway is the key to the biosynthesis of a plurality of pro-inflammatory cytokines including TNFα, IL-1β and IL-6. Therefore, the inhibition of the p38 MAPK pathway is to reduce inflammatory response by reducing the biosynthesis of the pro-inflammatory cytokines. […] This is a reflection of the effect of the compound in the present invention to facilitate reduction of inflammation, which is useful in the treatment of various diseases, including chronic inflammatory diseases, acute inflammatory diseases, or self-inflammatory diseases. The potency and efficacy of the p38 inhibitor in blocking cytokine production are evaluated using a human U937 cell line.
A 1640 medium with an article number being A10491-01, Gibco; penicillin-streptomycin with an article number being 15140-122, Gibco; fetal bovine serum with an article number being 10099-141C, Gibco; PBS with an article number being 10010-031, Gibco; LPS with an article number being L2880, Sigma; PMA with an article number being P1585, Sigma; dimethyl sulfoxide with an article number being D8418-1L, Sigma; and a TNFα kit with an article number being K151QWD-4, MSD.
A 96-well plate with an article number being 3599, Corning; a plate-vibrating device with an article number being QB-9002, QILINBEIER; a centrifuge with an article number being 5810R, Eppendorf; a carbon dioxide incubator with an article number being 371, Thermo; a counter with an article number being C10281, Gibco; a microscope with an article number being CKX41, OLYMPUS; and an MSD plate reader with an article number being 1201 MESO SECTOR 600, MSD.
U937, ATCC with an article number being CRL-1593.2.
About 2 mg of a drug is weighted; a mother solution is prepared to 10 mM (which is calculated by free alkali) by means of DMSO; and the mother solution is diluted 10-fold to 1 mM, and then is successively diluted 4-fold to 250 μM, 62.5 μM, 15.6 μM, 3.9 μM, 0.97 μM, 0.24 μM, and 0.061 μM. The above series of diluted DMSO drugs is diluted 20-fold as working solutions by using media.
At Day 0, 10000/well inoculation is performed, stimulation is performed for 48 h with 20 ng/ml of PMA, and culture is performed at 37° C., 5% CO2. • At Day 2, 1. Supernatant is removed from differentiated U937, cleaning is performed once with PBS, and 96 μl of the 1640 medium is added. • 2. 2 μl of the compound containing (DMSO with a final concentration being 0.1%), and culture is performed for 30 min at 37° C., 5% CO2. • 3. 2 μl of LPS (a final concentration being 100 ng/ml) is added, cells are stimulated, and culture is performed for 4 h at 37° C., 5% CO2. • 4. Centrifugation is performed, supernatant is taken, and content of TNFα in the supernatant is determined through ELISA.
The content of TNFα corresponding to each well is calculated by using a standard curve in the kit.
The compound IC50 is calculated by using a GraphPad nonlinear fitting formula, and for an experimental result, refer to Table 1.

The nature of data set [2]: Determination of solubility. The conditions noted are these: aqueous buffer, thermodynamic from solid, 37° C. 1 h. It counts as physicochemical. As to the method: About 0.5 mg of a to-be-tested sample in a centrifuge tube is weighted, an appropriate amount of DMSO is added to completely dissolve the sample, and then methanol is added to make up to 1 ml.
(If there are more pH values to be investigated, the preparation method may be deduced by analogy).
3. The prepared control solution and test solution are simultaneously put into a 37° C. water bath and heated for 1 h, after 1 h, the solutions are taken out and cooled to room temperature, and then the solutions are filtered with a 0.22 μm filter membrane for sample injection.
4. The concentration of the sample in the test solution is calculated according to C=(A*(ms/vs))/AS, and experiment results are shown in Table 2.
Note: ms, vs and AS are the weight, volume and peak area of the sample in the control solution, respectively.
A is the peak area of the test solution.

Data set [3] is described as follows: Pharmacokinetic experiment in Beagle dogs (IV and PO). The data set is classed as in vivo. The conditions noted are these: male, dog, plasma. The source says:
Polyethylene glycol 400 (batch number: GORKREUT, Saen Chemical Technology (Shanghai) Co., Ltd.); DMSO (batch number: 20200319, GHTECH (Guangdong) Co., Ltd.); and normal saline (batch number: C20052604, Jiangxi Kelun Pharmaceutical Co., Ltd.). An LC-MS instrument (Thermo Fisher Ultimate 3000 UPLC, TSQ QUANTUM ULTRA TSQ Quantum GC).
5 male Beagle dogs with weights being 5 kg to 7 kg, purchased from Beijing Mars Biotechnology Co., Ltd. […]
After the above mixture is given to the dogs through intragastric administration (n=3) or intravenous administration (n=2), about 1 mL of blood is collected from the forelimb or hindlimb vein with a scalp needle, respectively, at 5 min (intravenous administration only), 15 min, 30 min, 1 h, 2 h, 4 h, 6 h, 8 h, 24 h to put into blood collection tubes containing EDTA-K2 anticoagulant; centrifugation is performed for 10 min at 4000 rpm to separate plasma; and then the tubes are stored at −80° C. for testing.
A certain amount of a test sample is accurately weighted and dissolved with DMSO to 2 mg/mL, as a stock solution. The stock solution is diluted to 30000, 10000, 3000, 1000, 300, 100, 50, 30, and 10 ng/mL by using acetonitrile:water (1:1), to obtain standard curve working solutions. 5 μL of the working solution is added to 45 μL of blank canine plasma; and well mixing is performed through vortex, to prepare into standard curve samples equivalent to plasma concentrations of 3000, 1000, 300, 100, 30, 10, 5, 3, and 1 ng/mL. 30 μL of the standard curve sample and the collected plasma sample (plasma collected at 5 min, 15 min, and 30 min of intravenous administration is diluted 5-fold) are added to 150 μL of a propranolol acetonitrile solution (internal standard, 50 ng/mL) to precipitate protein, then 100 μL of water is added to well mix through vortex; centrifugation is performed for 5 min at 4000 rpm; and supernatant is taken for LC-MS analysis. LC-MS detection conditions include the following.
Chromatographic column: Waters ACQUITY™ PREMIER HSS T3, 50*2.1 mm, 1.8 μm.
Mobile phase A: water (0.1% formic acid); mobile phase B: acetonitrile; flow rate: 0.5 mL/min; and gradient elution is shown in Table 3 below.
After LC-MS detection of blood drug concentration, and a non-compartment model of WinNonlin 6.1 software is adopted to calculate pharmacokinetic parameters of beagle dogs after administration.

The target of a further data set is p38β (Homo sapiens, UniProt Q15759). Put plainly: p38β kinase screening experiment (ADP-Glo). It counts as biochemical. The conditions noted are these: ATP 100 μM in the substrate/ATP mix, 60 min; read-out: IC50 value that the compound inhibits p38β. As to the method: A certain amount of the compound is weighed, prepared into a 10/50 mM mother solution with DMSO, diluted 3 folds with DMSO, and diluted to 10 concentration points as a compound working solution.
50 nL of the diluted compound working solution is transferred to each well of a reaction plate (784075, Greiner) with Echo 655, then 2.5 μL (2 ng/μL) of a p38β kinase solution is added; after 10 minutes at room temperature, 2.5 μL of a mixed solution of a kinase substrate (0.4 mg/mL) and ATP (100 μM) is added, for reaction for 60 min at room temperature; and 4 μL of an ADP Glo reagent is added, for incubation for 40 min at room temperature. 8 μL of a kinase detection reagent is added, for incubation for 40 min at room temperature; and finally a light-emitting signal is read on Envision 2104.

Sequence of p38β (Q15759 whole entry): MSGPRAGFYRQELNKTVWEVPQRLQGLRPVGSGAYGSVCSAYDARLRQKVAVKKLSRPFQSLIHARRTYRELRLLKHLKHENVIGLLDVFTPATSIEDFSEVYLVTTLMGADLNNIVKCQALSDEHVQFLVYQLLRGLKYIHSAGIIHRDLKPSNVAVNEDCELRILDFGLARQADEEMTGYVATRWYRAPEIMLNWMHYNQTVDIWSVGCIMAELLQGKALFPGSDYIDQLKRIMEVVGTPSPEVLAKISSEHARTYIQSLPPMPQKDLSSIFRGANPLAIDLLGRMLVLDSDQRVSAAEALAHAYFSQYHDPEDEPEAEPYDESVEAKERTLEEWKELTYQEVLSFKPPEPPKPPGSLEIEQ

For `Cc1cnc(-c2ccnc(C(C)(C)O)n2)cc1-n1c(C)cc(OCc2ncc(F)cc2F)c(Cl)c1=O` (racemic) [Comparative example 1], the IC50 is 10.4 nM in data set [1] and 5970 nM at p38β. Moreover, the solubility at 1 h stood at 56.8 µg/mL (≈ 111 µM) in data set [2] (pH = 2.0, PBS buffer) and 26.8 µg/mL (≈ 52.1 µM) in data set [2] (pH = 7.4, PBS buffer). Besides, the area under the curve AUC(0-t) came out at 1530 ng·h/mL in data set [3] (IV 1 mg/kg) and 14400 ng·h/mL in data set [3] (PO 5 mg/kg). The Cmax is 657 ng/mL in data set [3] (IV 1 mg/kg) and 2000 ng/mL in data set [3] (PO 5 mg/kg). For the same compound, the clearance in data set [3] (IV 1 mg/kg) worked out at 10.7 mL/min/kg. The bioavailability in data set [3] (PO 5 mg/kg vs IV 1 mg/kg) came to 189%.
